The record followed here is US8921410B2, “Nicotinic acetylcholine receptor sub-type selective amides of diazabicycloalkanes” (Targacept, Inc., priority 2006, dated 2014).

Test [1] has as its target rat α4β2 nAChR subtype (Rattus norvegicus (Rat), UniProt P09483+P12390). Put plainly: Radioligand ([3H]nicotine) binding at α4β2 nAChR, rat cortex membranes. Here is the method:
Preparation of Membranes from Rat Cortex:
(§1) Rats (female, Sprague-Dawley), weighing 150-250 g, were maintained on a 12 h light/dark cycle and were allowed free access to water and food supplied by PMI Nutrition International, Inc. Animals were anesthetized with 70% CO2, and then decapitated. Brains were removed and placed on an ice-cold platform. […] The homogenate was centrifuged at 18,000×g for 20 min at 4° C. and the resulting pellet was re-suspended in 20 volumes of ice-cold water. After 60 min incubation on ice, a new pellet was collected by centrifugation at 18,000×g for 20 min at 4° C. The final pellet was re-suspended in 10 volumes of buffer and stored at −20° C.
(§2) On the day of the assay, the frozen membranes were thawed and spun at 48,000×g for 20 min. The supernatant was decanted and discarded. The pellet was resuspended in Dulbecco's phosphate buffered saline (PBS, Life Technologies) pH 7.4 and homogenized with the Polytron for 6 seconds. Protein concentrations were determined using a Pierce BCA Protein Assay Kit, with bovine serum albumin as the standard (Pierce Chemical Company, Rockford, Ill.).
(§3) Tissue was rinsed 3 times in PBS, pH 7.4. Scintillation fluid was added to filters containing the washed tissue and allowed to equilibrate.
(§4) Data were expressed as disintegrations per minute (DPMs). Within each assay, each point had 2-3 replicates. The replicates for each point were averaged and plotted against the log of the drug concentration.

For test [2], the target named is human α4β2 nAChR subtype (Homo sapiens (Human), UniProt P17787+P43681). Put plainly: Radioligand ([3H]nicotine) binding at α4β2 nAChR, SH-EP1/human α4β2 clonal cell membranes. Here is the method: Preparation of Membranes from SH-EP1/Human α4β2 Clonal Cells:
Cell pellets from 40 150 mm culture dishes were pooled, and homogenized by Polytron (Kinematica GmbH, Switzerland) in 20 milliliters of ice-cold preparative buffer. The homogenate was centrifuged at 48,000 g for 20 minutes at 4° C. The resulting pellet was re-suspended in 20 mL of ice-cold preparative buffer and stored at −20° C.
as §2, §3, §4

Test [3] deals with α7 nAChR subtype (Rattus norvegicus (Rat), UniProt Q05941). Put plainly: Radioligand ([3H]MLA) binding at α7 nAChR, rat hippocampus membranes. The settings on record: for α7 high through-put screening outcome (Ki not determined): did not bind sufficiently in HTS at α7 to warrant Ki determination. Here is the method:
as §1, with “CO2,” for “CO2, and”, “in 10” for “in 20”
The binding of [^3H]MLA was measured using a modification of the methods of Davies et al., Neuropharmacol. […] [^3H]MLA (Specific Activity=25-35 Ci/mmol) was obtained from Tocris. The binding of [^3H]MLA was determined using a 2 h incubation at 21° C. Incubations were conducted in 48-well micro-titre plates and contained about 200 μg of protein per well in a final incubation volume of 300 μL. The incubation buffer was PBS and the final concentration of [^3H]MLA was 5 nM. The binding reaction was terminated by filtration of the protein containing bound ligand onto glass fiber filters (GF/B, Brandel) using a Brandel Tissue Harvester at room temperature. […] Each filter was washed with PBS (3×1 mL) at room temperature. Non-specific binding was determined by inclusion of 50 μM non-radioactive MLA in selected wells.
The inhibition of [^3H]MLA binding by test compounds was determined by including seven different concentrations of the test compound in selected wells. Each concentration was replicated in triplicate. IC50 values were estimated as the concentration of compound that inhibited 50 percent of specific [^3H]MLA binding.

The test system of test [4] is object recognition in rats. The test is described as follows: Novel object recognition (NOR) task. Format: in vivo, rat. The note with it: oral. As for the experimental part: The novel object recognition (NOR) task was performed in accord with the description of Ennaceur and Delacour Behav. Brain Res. 100: 85-92 (1988).
The mark [5] stands for this setting: [3H]nicotine 5 nM, rat cortex membranes.
Where [6] appears, read: [3H]nicotine 5 nM, SH-EP1/human α4β2 membranes, read-out: Human α4β2 Ki.
[7] abbreviates: [3H]MLA 5 nM, rat hippocampus membranes.

SMILES strings stand for the structures. Read-outs that look alike come from different tables or passages of the source.

Chain of human α4β2 nAChR subtype (P43681 29-627): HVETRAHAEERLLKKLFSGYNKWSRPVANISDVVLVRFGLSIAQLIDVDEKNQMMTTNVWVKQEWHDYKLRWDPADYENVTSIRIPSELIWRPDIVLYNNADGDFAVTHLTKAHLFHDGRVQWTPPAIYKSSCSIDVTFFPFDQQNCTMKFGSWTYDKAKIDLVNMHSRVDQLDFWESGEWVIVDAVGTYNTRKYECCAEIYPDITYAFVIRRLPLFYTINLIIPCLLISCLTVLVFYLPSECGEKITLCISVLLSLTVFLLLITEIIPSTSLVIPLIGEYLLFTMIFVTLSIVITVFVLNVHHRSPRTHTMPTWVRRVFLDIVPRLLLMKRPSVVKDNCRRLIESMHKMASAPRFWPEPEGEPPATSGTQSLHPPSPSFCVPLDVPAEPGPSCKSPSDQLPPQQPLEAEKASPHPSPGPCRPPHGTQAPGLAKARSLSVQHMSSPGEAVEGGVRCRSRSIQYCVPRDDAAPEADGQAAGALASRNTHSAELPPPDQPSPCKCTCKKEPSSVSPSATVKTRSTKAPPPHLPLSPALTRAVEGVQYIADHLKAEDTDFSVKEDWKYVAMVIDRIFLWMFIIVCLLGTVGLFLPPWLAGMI
Chain of human α4β2 nAChR subtype (P17787 26-502): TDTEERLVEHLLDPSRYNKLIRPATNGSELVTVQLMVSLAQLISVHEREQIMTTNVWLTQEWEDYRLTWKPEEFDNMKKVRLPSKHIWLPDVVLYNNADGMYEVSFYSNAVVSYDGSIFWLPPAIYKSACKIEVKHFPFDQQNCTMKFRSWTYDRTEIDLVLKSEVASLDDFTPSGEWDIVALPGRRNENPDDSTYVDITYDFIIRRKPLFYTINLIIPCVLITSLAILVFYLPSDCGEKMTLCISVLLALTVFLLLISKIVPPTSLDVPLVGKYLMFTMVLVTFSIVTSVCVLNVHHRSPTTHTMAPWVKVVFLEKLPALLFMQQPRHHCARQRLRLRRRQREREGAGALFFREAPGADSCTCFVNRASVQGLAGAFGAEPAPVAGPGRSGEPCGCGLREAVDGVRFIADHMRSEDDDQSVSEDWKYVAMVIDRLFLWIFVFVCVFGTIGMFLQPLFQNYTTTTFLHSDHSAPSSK
Chain of α7 nAChR subtype (Q05941 23-502): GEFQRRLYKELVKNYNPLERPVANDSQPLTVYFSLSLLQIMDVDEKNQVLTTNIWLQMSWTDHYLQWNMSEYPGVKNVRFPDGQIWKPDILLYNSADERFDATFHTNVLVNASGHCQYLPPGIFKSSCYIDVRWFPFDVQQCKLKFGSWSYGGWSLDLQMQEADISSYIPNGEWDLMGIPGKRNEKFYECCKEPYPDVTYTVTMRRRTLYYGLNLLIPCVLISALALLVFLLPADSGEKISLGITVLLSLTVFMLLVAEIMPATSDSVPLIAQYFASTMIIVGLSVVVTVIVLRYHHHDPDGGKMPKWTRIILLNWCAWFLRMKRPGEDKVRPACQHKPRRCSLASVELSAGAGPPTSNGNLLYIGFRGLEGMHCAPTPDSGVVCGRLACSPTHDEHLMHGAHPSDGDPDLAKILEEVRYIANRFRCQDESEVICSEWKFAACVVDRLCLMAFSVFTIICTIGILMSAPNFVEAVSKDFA
Chain of rat α4β2 nAChR subtype (P09483 31-630): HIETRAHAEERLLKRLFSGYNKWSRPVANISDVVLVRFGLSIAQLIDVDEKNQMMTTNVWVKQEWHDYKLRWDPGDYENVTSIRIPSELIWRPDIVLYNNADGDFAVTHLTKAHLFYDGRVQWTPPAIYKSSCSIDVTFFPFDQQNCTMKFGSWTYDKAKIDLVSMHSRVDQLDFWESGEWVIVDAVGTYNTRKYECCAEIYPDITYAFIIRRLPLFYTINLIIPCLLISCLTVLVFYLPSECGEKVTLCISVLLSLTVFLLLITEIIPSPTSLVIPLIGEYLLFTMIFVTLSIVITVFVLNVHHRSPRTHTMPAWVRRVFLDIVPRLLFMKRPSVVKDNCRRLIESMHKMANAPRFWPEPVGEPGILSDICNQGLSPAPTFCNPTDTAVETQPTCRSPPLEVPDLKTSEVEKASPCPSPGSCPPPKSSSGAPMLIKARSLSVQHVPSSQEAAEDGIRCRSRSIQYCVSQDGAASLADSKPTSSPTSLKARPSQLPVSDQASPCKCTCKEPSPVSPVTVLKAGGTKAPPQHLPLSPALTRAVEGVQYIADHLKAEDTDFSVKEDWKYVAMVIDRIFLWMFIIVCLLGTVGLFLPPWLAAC
Chain of rat α4β2 nAChR subtype (P12390 25-500): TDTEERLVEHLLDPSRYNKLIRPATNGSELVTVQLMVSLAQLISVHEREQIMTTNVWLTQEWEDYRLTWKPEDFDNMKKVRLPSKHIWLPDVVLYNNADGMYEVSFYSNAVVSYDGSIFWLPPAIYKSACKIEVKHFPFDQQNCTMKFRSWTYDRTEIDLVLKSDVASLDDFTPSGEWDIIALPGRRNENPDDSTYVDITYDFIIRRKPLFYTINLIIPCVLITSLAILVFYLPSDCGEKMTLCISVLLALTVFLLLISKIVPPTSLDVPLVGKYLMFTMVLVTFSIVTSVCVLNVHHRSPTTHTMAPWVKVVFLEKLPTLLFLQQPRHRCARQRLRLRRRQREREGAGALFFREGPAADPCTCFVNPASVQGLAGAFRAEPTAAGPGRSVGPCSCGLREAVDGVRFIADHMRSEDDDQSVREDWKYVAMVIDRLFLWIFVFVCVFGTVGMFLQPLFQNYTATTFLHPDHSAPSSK

In the case of `O=C(c1ccc(Cl)o1)N1CC2CNCC(C2)C1` [N-(5-chlorofuran-2-ylcarbonyl)-3,7-diazabicyclo[3.3.1]nonane], the Ki (as a rule, a measure of affinity in units of concentration, obtained from inhibition or displacement) worked out at 15 nM in test [1] (setting [5]), 7.3 nM in test [2] (setting [6]) and 120000 nM in test [3] (setting [7]). Moreover, the “activity in object recognition (OR)” value in test [4] (0.3 mg/kg (FIG. 2)) is listed as “active”.
As for `O=C(c1ccc(Cl)o1)N1CC2CNCC2C1` (centres unmarked) [N-(5-chlorofuran-2-ylcarbonyl)-3,7-diazabicyclo[3.3.0]octane], the values for the Ki in test [1] (setting [5]), in test [2] (setting [6]) and in test [3] (setting [7]) were 33 nM, 28 nM and 91000 nM, respectively. Also, in test [4] (0.1 mg/kg (FIG. 1)), the “activity in object recognition (OR)” value is “active”.
As to `O=C(c1ccco1)N1CC2CNCC(C2)C1` [N-(furan-2-ylcarbonyl)-3,7-diazabicyclo[3.3.1]nonane], the values for the inhibition constant (Ki) in test [1] (setting [5]), in test [2] (setting [6]) and in test [3] were 31 nM, 9.9 nM and 15000 nM, respectively.
For `Cc1cc(F)c(C(=O)N2CC3CNCC(C3)C2)o1`, the Ki in test [1] (setting [5]) was found to be 500 nM; in test [2] (setting [6]), 62 nM. In test [3], the “α7 high through-put screening outcome (Ki not determined)” value is reported as “ND; failed HTS”.
Turning to `COc1cc(C(=O)N2CC3CNCC(C3)C2)on1`, the values for the Ki in test [1] and in test [2] (setting [6]) were 33 nM and 180 nM, respectively. Besides, the “α7 high through-put screening outcome (Ki not determined)” value in test [3] is “ND; failed HTS”.
Take `O=C(c1cc(C(F)(F)F)co1)N1CC2CNCC2C1` (centres unmarked): the Ki in test [1] (setting [5]) stood at 320 nM; in test [2] (setting [6]) it was 36 nM. Also, the “α7 high through-put screening outcome (Ki not determined)” value in test [3] is “ND; failed HTS”.
In the same order, the values of `N#Cc1ccoc1C(=O)N1CC2CNCC(C2)C1` are 110 nM, 31 nM and “ND; failed HTS”.
In the same order, the values of `O=CNc1ccc(C(=O)N2CC3CNCC3C2)o1` (centres unmarked) are 53 nM, 63 nM and “ND; failed HTS”.
Turning to `O=C(c1cc(Br)no1)N1CC2CNCC(C2)C1`, the values for the inhibition constant (Ki) in test [1] (setting [5]) and in test [2] (read-out: Human α4β2 Ki) were 5.9 nM and 18 nM, respectively. Also, the “α7 high through-put screening outcome (Ki not determined)” value in test [3] is “ND; failed HTS”.
Take `Cc1cc(C(=O)N2CC3CNCC3C2)no1` (centres unmarked): the Ki in test [1] (setting [5]) came to 150 nM; in test [2] (setting [6]), 84 nM. Also, in test [3], the “α7 high through-put screening outcome (Ki not determined)” value is reported as “ND; failed HTS”.
For `Cc1cc(F)c(C(=O)N2CC3CNCC3C2)o1` (centres unmarked), the Ki was 65 nM in test [1] and 14 nM in test [2] (setting [6]). Also, the “α7 high through-put screening outcome (Ki not determined)” value in test [3] is “ND; failed HTS”.
For the compound `N#Cc1coc(C(=O)N2CC3CNCC(C3)C2)c1`, the Ki in test [1] (setting [5]) was determined as 27 nM; in test [2] it was 23 nM. Further, in test [3], the “α7 high through-put screening outcome (Ki not determined)” value was “ND; failed HTS”.
